Here are results for two molecules from patent publication US12508280B2, “Formulations for improving gut health” (DSM IP ASSETS B.V., priority 2018, dated 2025).

What all share (assay type): cell-based, human
Assay [1] has as its system colonic microbiota (fecal inoculum of two healthy adults). Put plainly: Microbiome diversity, alpha and beta (second set). As to the method: (§1) In a second set of in vitro experiments, at the start of the short-term colonic incubations, the test ingredients were added to nutritional medium containing basal nutrients present in the colon (e.g. host-derived glycans such as mucin). Three doses were tested per product. The nutritional medium used for this particular project was again supplemented with NaCl, MgSO4, CaCl2, hemin and bile salts, and with carbon sources glucose, starch and cellobiose. A blank, containing the same nutritional medium as that used for the product incubations, but without product addition, was included for each donor. In doing so, an assessment can be made of the background activity of the bacterial community, which results from fermentation of compounds in the nutritional medium. As a source of the colonic microbiota a fecal inoculum of two healthy adults was added. Incubations were performed for 48 h at 37′C, under shaking (90 rpm) and anaerobic conditions and protected from light. […] For the second set of in vitro experiments, two techniques were combined according to Vandeputte et al.

The test system is the same in assay [2]. Kind of assay: 16S-targeted Illumina sequencing with flow cytometry, taxa abundance (second set). The settings on record: 24 h fermentation. As to the method: as §1
In general terms: In flow cytometry, cells or beads pass a laser one at a time.

In assay [3] the test system is fecal inoculum of two healthy adults. Kind of assay: Short-term colonic incubations, SCFA production (second set). Conditions: 48 h fermentation. The protocol: In a second set of in vitro experiments, at the start of the short-term colonic incubations, the test ingredients were added to nutritional medium containing basal nutrients present in the colon (e.g. host-derived glycans such as mucin). Three doses were tested per product. The nutritional medium used for this particular project was again supplemented with NaCl, MgSO4, CaCl2, hemin and bile salts, and with carbon sources glucose, starch and cellobiose. A blank, containing the same nutritional medium as that used for the product incubations, but without product addition, was included for each donor. In doing so, an assessment can be made of the background activity of the bacterial community, which results from fermentation of compounds in the nutritional medium. As a source of the colonic microbiota a fecal inoculum of two healthy adults was added. Incubations were performed for 48 h at 37'C, under shaking (90 rpm) and anaerobic conditions and protected from light. […] Each compound was tested in three different concentrations; an overview is given in Table 2, below: Short chain fatty acids (SCFA) are an assessment of the microbial carbohydrate metabolism (acetate, propionate and butyrate) or protein metabolism (branched SCFA) and can be compared to typical fermentation patterns for normal GI microbiota. Samples for SCFA analysis were analyzed after 0, 6, 24 and 48 h of incubation for both set of in vitro experiments, above. SCFA were extracted from the samples with diethyl ether, after the addition of 2-methyl hexanoic acid as an internal standard. […], Belgium), a flame ionization detector and a split injector. The injection volume was […] and the temperature profile was set from 110 to 160° C., with a temperature increase of 6° C. min-1. […] The production of unbranched and branched SCFA was calculated by summing the molar concentrations of acetate, propionate, butyrate, valerate and caproate, and summing isobutyrate, isovalerate and isocaproate molar concentrations, respectively. The total SCFA production was defined as the sum of unbranched and branched SCFA.

Take `CC1=C(/C=C/C(C)=C/C=C/C(C)=C/C=C/C=C(C)/C=C/C=C(C)/C=C/C2=C(C)CCCC2(C)C)C(C)(C)CCC1` [β-carotene]: in assay [1] (0.2× dose, donor D), the “beta-diversity (Bray-Curtis distance to control)” value (shortened to “beta-diversity”) was “increases beta-diversity”. Also, the “beta-diversity” value in assay [1] (1× dose, both donors) was “increases beta-diversity”. Moreover, the “beta-diversity” value in assay [1] (1× dose, donor D) is “increases beta-diversity”. Further, the “beta-diversity” value in assay [1] (5× dose, both donors) is listed as “increases beta-diversity”. In addition, the Bifidobacteriaceae relative abundance entry in assay [2] (1× dose, both donors) is given as “increase Bifidobacteriaceae relative abundance”. Further, in assay [2] (1× dose, donor C), the Clostridiaceae relative abundance entry is “increase Clostridiaceae relative abundance” and the Prevotellaceae relative abundance entry is reported as “increase Prevotellaceae relative abundance”. Besides, in assay [2] (1× dose, donor D), the Coriobacteriaceae relative abundance result is “increase Coriobacteriaceae relative abundance”, the “Faecalibacterium prausnitzii relative abundance” value is “increase Faecalibacterium prausnitzii relative abundance” and the Veillonellaceae relative abundance entry was “increase Veillonellaceae relative abundance”. Also, in assay [2] (5× dose, both donors), the Akkermansiaceae relative abundance entry is “increase Akkermansiaceae relative abundance”, the Bifidobacteriaceae relative abundance result is “increase Bifidobacteriaceae relative abundance”, the Desulfovibrionaceae relative abundance result is “decrease Desulfovibrionaceae relative abundance” and the Eggerthellaceae relative abundance entry was “increase Eggerthellaceae relative abundance”. In assay [2] (5× dose, donor D), the Barnesiellaceae relative abundance result is reported as “increase Barnesiellaceae relative abundance”, the Coriobacteriaceae relative abundance result is listed as “increase Coriobacteriaceae relative abundance”, the “Faecalibacterium prausnitzii relative abundance” value is “increase Faecalibacterium prausnitzii relative abundance” and the Veillonellaceae relative abundance result was “increase Veillonellaceae relative abundance”. Besides, the butyrate production entry in assay [3] (0.2× dose, donor C) is on record as “increase butyrate production”. Also, in assay [3] (1× dose, both donors), the acetate production result was “increase acetate production”, the butyrate production entry is reported as “increase butyrate production” and the “total SCFA production” value is listed as “increase total SCFA production”. The propionate production result in assay [3] (1× dose, donor C) is on record as “increase propionate production”. In addition, in assay [3] (5× dose, both donors), the acetate production result is listed as “increase acetate production” and the “total SCFA production” value was “increase total SCFA production”. Moreover, the propionate production entry in assay [3] (5× dose, donor C) is “increase propionate production”.

For Calcium D-Pantothenate [vitamin B5], the “alpha-diversity (Shannon diversity index)” value in assay [1] (0.2× dose, donor D) was “increases alpha-diversity”; in assay [1] (5× dose, donor D) it was “increases alpha-diversity”. Besides, the “beta-diversity” value in assay [1] (5× dose, both donors) is reported as “increases beta-diversity”. In addition, the Akkermansiaceae relative abundance entry in assay [2] (0.2× dose, donor D) is “increase Akkermansiaceae relative abundance”. The “Faecalibacterium prausnitzii relative abundance” value in assay [2] (0.2× dose, donor D) was “increase Faecalibacterium prausnitzii relative abundance”; in assay [2] (1× dose, donor D) it was “increase Faecalibacterium prausnitzii relative abundance”; in assay [2] (5× dose, donor D), “increase Faecalibacterium prausnitzii relative abundance”. For the same molecule, the Veillonellaceae relative abundance result in assay [2] (0.2× dose, donor D) is listed as “increase Veillonellaceae relative abundance”. Moreover, the Erysipelotrichaceae relative abundance result in assay [2] (1× dose, donor D) is on record as “increase Erysipelotrichaceae relative abundance”. The Bifidobacteriaceae relative abundance result in assay [2] (5× dose, both donors) is “increase Bifidobacteriaceae relative abundance”. In assay [2] (5× dose, donor C), the Desulfovibrionaceae relative abundance entry was “decrease Desulfovibrionaceae relative abundance”. In addition, the propionate production result in assay [3] (0.2× dose, donor C) is on record as “increase propionate production”. In addition, the “branched SCFA production” value in assay [3] (5× dose, both donors) is recorded as “decrease branched SCFA production”.
